Experimental data from publication PMC12040969, “Design, synthesis, in silico studies, and apoptotic antiproliferative activity of novel thiazole-2-acetamide derivatives as tubulin polymerization inhibitors” (Frontiers in Chemistry, 2025).
Each block holds one compound with its values, some of them ahead of it.

Experiments:
[1] = system: pancreatic - MDAMB-231; experiment: Antiproliferative assay (MTT) MDAMB-231; conditions: read-out: Antiproliferative activity IC50 ± SEM (µM) MDAMB-231; MDAMB-231, MTT
[2] = system: colon - HCT-116; experiment: Antiproliferative assay (MTT) HCT-116; conditions: for IC50: read-out: Antiproliferative activity IC50 ± SEM (µM) HCT-116, HCT-116, MTT
[3] = system: four human cancer cell lines (HCT-116, PC-3, MCF-7, MDAMB-231); experiment: Antiproliferative assay, mean of four cell lines (GI50); conditions: for IC50: Homo sapiens, read-out: GI50 (average IC50); for Reduced potency compared to doxorubicin (GI50) / Reduced potency compared to sorafenib (GI50): GI50 ratio
[4] = system: prostatic - PC-3; experiment: Antiproliferative assay (MTT) PC-3; conditions: for IC50: read-out: Antiproliferative activity IC50 ± SEM (µM) PC-3, PC-3, MTT
[5] = system: breast - MCF-7; experiment: Antiproliferative assay (MTT) MCF-7; conditions: for IC50: read-out: Antiproliferative activity IC50 ± SEM (µM) MCF-7, MCF-7, MTT
[6] = system: - MDAMB-231; experiment: Antiproliferative assay (MTT) MDAMB-231
[7] = system: tubulin; experiment: Tubulin polymerization inhibition assay (Cytoskeleton kit);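 as to all read-outs here: Cell-free tubulin polymerization read by fluorescent reporter enhancement over a 30 min reaction, with the compound-free kit control taken as 100% activity and inhibition relative to it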; conditions: for Tub %inh / Tub. enzyme inhibition assay %inhibition: 30 min; for Tub %inh: YB-EGY run; for Tub K.Activity: EC = 120, YB-EGY run; for IC50: read-out: Tubulin inhibition IC50 ± SEM, triplicate for each tested concentration; for Tub. enzyme inhibition assay %inhibition: codes 522-537 run; for Tub. enzyme inhibition assay K. Activity: control = 120, codes 522-537 run
[8] = Cell viability assay (MTT), normal cells; type: cell-based; conditions: human, MCF-10A normal mammary gland epithelial cells, four-day incubation
Description: The impact of novel compounds 10a-o and 13a-e on cell viability was examined using the MCF-10A (human mammary gland epithelial) normal cell line. The MTT test was employed to assess the cell viability of the novel compounds after a four-day incubation with MCF-10A cells ([El-Sherief et al., 2019]; [Ramadan et al., 2020]).
The effects of compounds 10a-o and 13a-e on cell viability were assessed using the human mammary gland epithelial normal cell line (MCF-10A). The MTT assay assessed the cell viability of compounds 10a-o and 13a-e following a four-day incubation with MCF-10A cells ([El-Sherief et al., 2019]; [Ramadan et al., 2020]). Check Supplementary Appendix A for additional information.
4.2. Biological evaluation
4.2.1 Cell Viability assay (MTT assay)
MTT assay was performed to investigate the effect of the synthesized compounds on mammary epithelial cells (MCF-10A). The cells were propagated in medium consisting of Ham's F-12 medium/ Dulbecco's modified Eagle's medium (DMEM) (1:1) supplemented with 10% foetal calf serum, 2 mM glutamine, insulin (10 μg/mL), hydrocortisone (500 ng/mL) and epidermal growth factor (20 ng/mL). Trypsin ethylenediamine tetra acetic acid (EDTA) was used to passage the cells after every 2-3 days. 96-well flat-bottomed cell culture plates were used to seed the cells at a density of 10^4 cells mL-1. The medium was aspirated from all the wells of culture plates after 24 h followed by the addition of synthesized compounds (in 200 μL medium to yield a final concentration of 0.1% (v/v) dimethyl sulfoxide) into individual wells of the plates.
Four wells were designated to a single compound. The plates were allowed to incubate at 37°C for 96 h. Afterwards, the medium was aspirated and 3-[4,5-dimethylthiazol-2-yl]-2,5-diphenyltetrazolium bromide (MTT) (0.4 mg/mL) in medium was added to each well and subsequently incubated for 3 h. The medium was aspirated and 150 μL dimethyl sulfoxide (DMSO) was added to each well. The plates were vortexed followed by the measurement of absorbance at 540 nm on a microplate reader. The results were presented as inhibition (%) of proliferation in contrast to controls comprising 0.1%

SMILES: Cc1nc(SCC(=O)Nc2nc(-c3ccc(Cl)cc3)cs2)sc1C(=O)/C=C/c1ccc(F)cc1 [Compound 10h, (E)-N-(4-(4-chlorophenyl)thiazol-2-yl)-2-((5-(3-(4-fluorophenyl)acryloyl)-4-methylthiazol-2-yl)thio)acetamide]
IC50 [1]: 15 ± 1.3 µM | Average of Relative viability of cells (%) ([6]; MDAMB-231, 1.56 µM): 100% | Average of Relative viability of cells (%) ([6]; MDAMB-231, 3.125 µM): 85.7% | Average of Relative viability of cells (%) ([6]; MDAMB-231, 6.25 µM): 68.5% | Average of Relative viability of cells (%) ([6]; MDAMB-231, 12.5 µM): 47.4% | Average of Relative viability of cells (%) ([6]; MDAMB-231, 25 µM): 37.1% | Average of Relative viability of cells (%) ([6]; MDAMB-231, 50 µM): 26.7% | Average of Relative viability of cells (%) ([6]; MDAMB-231, 100 µM): 21.6% | Average of Relative viability of cells (%) ([2]; HCT-116, 1.56 µM): 100% | Average of Relative viability of cells (%) ([2]; HCT-116, 3.125 µM): 97.6% | Average of Relative viability of cells (%) ([2]; HCT-116, 6.25 µM): 79.5% | Average of Relative viability of cells (%) ([2]; HCT-116, 12.5 µM): 69.3% | Average of Relative viability of cells (%) ([2]; HCT-116, 25 µM): 52.8% | Average of Relative viability of cells (%) ([2]; HCT-116, 50 µM): 39.4% | Average of Relative viability of cells (%) ([2]; HCT-116, 100 µM): 20.2% | IC50 [2]: 29 ± 1.9 µM | Reduced potency compared to doxorubicin (GI50) [3]: at least 2.5 fold | Reduced potency compared to sorafenib (GI50) [3]: ≥ 1.5 fold | IC50 [3]: 32 µM | Tub %inh ([7]; conc 0.1 (unit not given)): 9.85% | Tub K.Activity ([7]; conc 0.1 (unit not given)): 108.18 | Tub %inh ([7]; conc 1 (unit not given)): 26.6% | Tub K.Activity ([7]; conc 1 (unit not given)): 88.132 | Tub %inh ([7]; conc 10 (unit not given)): 44.8% | Tub K.Activity ([7]; conc 10 (unit not given)): 66.269 | Tub %inh ([7]; conc 50 (unit not given)): 65.5% | Tub K.Activity ([7]; conc 50 (unit not given)): 41.405 | Tub %inh ([7]; conc 100 (unit not given)): 84.5% | Tub K.Activity ([7]; conc 100 (unit not given)): 18.607 | IC50 [7]: 7.95 ± 0.24 µM | Average of Relative viability of cells (%) ([4]; PC-3, 1.56 µM): 100% | Average of Relative viability of cells (%) ([4]; PC-3, 3.125 µM): 100% | Average of Relative viability of cells (%) ([4]; PC-3, 6.25 µM): 100% | Average of Relative viability of cells (%) ([4]; PC-3, 12.5 µM): 93.5% | Average of Relative viability of cells (%) ([4]; PC-3, 25 µM): 72.4% | Average of Relative viability of cells (%) ([4]; PC-3, 50 µM): 55.8% | Average of Relative viability of cells (%) ([4]; PC-3, 100 µM): 36.5% | IC50 [4]: 61 ± 3.5 µM | Average of Relative viability of cells (%) ([5]; MCF-7, 1.56 µM): 100% | Average of Relative viability of cells (%) ([5]; MCF-7, 3.125 µM): 94.8% | Average of Relative viability of cells (%) ([5]; MCF-7, 6.25 µM): 76.5% | Average of Relative viability of cells (%) ([5]; MCF-7, 12.5 µM): 53.9% | Average of Relative viability of cells (%) ([5]; MCF-7, 25 µM): 50.2% | Average of Relative viability of cells (%) ([5]; MCF-7, 50 µM): 37.1% | Average of Relative viability of cells (%) ([5]; MCF-7, 100 µM): 23.6% | IC50 [5]: 24 ± 1.7 µM | viability at 96 h, 50 µM [8]: 85%

SMILES: Cc1ccc(/C=C/C(=O)c2sc(SCC(=O)Nc3nc(-c4ccc(Cl)cc4)cs3)nc2C)cc1 [Compound 10i, (E)-N-(4-(4-chlorophenyl)thiazol-2-yl)-2-((4-methyl-5-(3-(p-tolyl)acryloyl)thiazol-2-yl)thio)acetamide]
Tub. enzyme inhibition assay %inhibition ([7]; conc 0.01 (unit not given)): 1.51% | Tub. enzyme inhibition assay K. Activity ([7]; conc 0.01 (unit not given)): 118.18 | Tub. enzyme inhibition assay %inhibition ([7]; conc 0.1 (unit not given)): 5.52% | Tub. enzyme inhibition assay K. Activity ([7]; conc 0.1 (unit not given)): 113.37 | Tub. enzyme inhibition assay %inhibition ([7]; conc 1 (unit not given)): 19.3% | Tub. enzyme inhibition assay K. Activity ([7]; conc 1 (unit not given)): 96.892 | Tub. enzyme inhibition assay %inhibition ([7]; conc 10 (unit not given)): 41.3% | Tub. enzyme inhibition assay K. Activity ([7]; conc 10 (unit not given)): 70.409 | Tub. enzyme inhibition assay %inhibition ([7]; conc 100 (unit not given)): 72.1% | Tub. enzyme inhibition assay K. Activity ([7]; conc 100 (unit not given)): 33.442 | IC50 [7]: 33.5 ± 1.21 µM | Tub. (IC50) IC50±SD ([7]; supplement raw data, lab codes): 17.63 ± 0.64 µg/mL | viability at 96 h, 50 µM [8]: 91%

Further compounds by falling IC50 [1], results first:

IC50 [1]: 8 ± 0.4 µM | IC50 [2]: 6 ± 0.3 µM | IC50 [3]: 8 µM | IC50 [4]: 12 ± 0.9 µM | IC50 [5]: 7 ± 0.3 µM
SMILES: CNC(=O)c1cc(Oc2ccc(NC(=O)Nc3ccc(Cl)c(C(F)(F)F)c3)cc2)ccn1 [Sorafenib, reference compound]

IC50 [1]: 8 ± 0.7 µM | IC50 [2]: 17 ± 1.4 µM | Reduced potency compared to doxorubicin (GI50) [3]: at least 2.5 fold | Reduced potency compared to sorafenib (GI50) [3]: ≥ 1.5 fold | IC50 [3]: 12 µM | IC50 [7]: 3.73 ± 0.11 µM | IC50 [4]: 14 ± 1.2 µM | IC50 [5]: 9 ± 0.7 µM
SMILES: Cc1nc(SCC(=O)Nc2nccs2)sc1C(=O)/C=C/c1ccc(Cl)cc1 [Compound 13b, (E)-2-((5-(3-(4-chlorophenyl)acryloyl)-4-methylthiazol-2-yl)thio)-N-(thiazol-2-yl)acetamide]
Average of Relative viability of cells (%) ([6]; MDAMB-231, 1.56 µM): 91.7% | Average of Relative viability of cells (%) ([6]; MDAMB-231, 3.125 µM): 68.9% | Average of Relative viability of cells (%) ([6]; MDAMB-231, 6.25 µM): 60.5% | Average of Relative viability of cells (%) ([6]; MDAMB-231, 12.5 µM): 34.6% | Average of Relative viability of cells (%) ([6]; MDAMB-231, 25 µM): 26.3% | Average of Relative viability of cells (%) ([6]; MDAMB-231, 50 µM): 17.4% | Average of Relative viability of cells (%) ([6]; MDAMB-231, 100 µM): 9.2% | Average of Relative viability of cells (%) ([2]; HCT-116, 1.56 µM): 100% | Average of Relative viability of cells (%) ([2]; HCT-116, 3.125 µM): 92.7% | Average of Relative viability of cells (%) ([2]; HCT-116, 6.25 µM): 73.3% | Average of Relative viability of cells (%) ([2]; HCT-116, 12.5 µM): 53.2% | Average of Relative viability of cells (%) ([2]; HCT-116, 25 µM): 39.5% | Average of Relative viability of cells (%) ([2]; HCT-116, 50 µM): 27.4% | Average of Relative viability of cells (%) ([2]; HCT-116, 100 µM): 14.3% | Tub %inh ([7]; conc 0.1 (unit not given)): 15.2% | Tub K.Activity ([7]; conc 0.1 (unit not given)): 101.7 | Tub %inh ([7]; conc 1 (unit not given)): 32.3% | Tub K.Activity ([7]; conc 1 (unit not given)): 81.254 | Tub %inh ([7]; conc 10 (unit not given)): 54.2% | Tub K.Activity ([7]; conc 10 (unit not given)): 54.918 | Tub %inh ([7]; conc 50 (unit not given)): 76.9% | Tub K.Activity ([7]; conc 50 (unit not given)): 27.751 | Tub %inh ([7]; conc 100 (unit not given)): 92.3% | Tub K.Activity ([7]; conc 100 (unit not given)): 9.196 | Average of Relative viability of cells (%) ([4]; PC-3, 1.56 µM): 100% | Average of Relative viability of cells (%) ([4]; PC-3, 3.125 µM): 86.4% | Average of Relative viability of cells (%) ([4]; PC-3, 6.25 µM): 69.2% | Average of Relative viability of cells (%) ([4]; PC-3, 12.5 µM): 45.8% | Average of Relative viability of cells (%) ([4]; PC-3, 25 µM): 33.7% | Average of Relative viability of cells (%) ([4]; PC-3, 50 µM): 25.3% | Average of Relative viability of cells (%) ([4]; PC-3, 100 µM): 17.1% | Average of Relative viability of cells (%) ([5]; MCF-7, 1.56 µM): 97.8% | Average of Relative viability of cells (%) ([5]; MCF-7, 3.125 µM): 83.5% | Average of Relative viability of cells (%) ([5]; MCF-7, 6.25 µM): 57.1% | Average of Relative viability of cells (%) ([5]; MCF-7, 12.5 µM): 39.3% | Average of Relative viability of cells (%) ([5]; MCF-7, 25 µM): 22.6% | Average of Relative viability of cells (%) ([5]; MCF-7, 50 µM): 14.7% | Average of Relative viability of cells (%) ([5]; MCF-7, 100 µM): 8.2% | viability at 96 h, 50 µM [8]: 87%

IC50 [1]: 3 ± 0.1 µM | IC50 [2]: 5 ± 0.3 µM | IC50 [3]: 5 µM | IC50 [4]: 9 ± 0.6 µM | IC50 [5]: 4 ± 0.2 µM
SMILES: COc1cccc2c1C(=O)c1c(O)c3c(c(O)c1C2=O)C[C@@](O)(C(=O)CO)C[C@@H]3O[C@H]1C[C@H](N)[C@H](O)[C@H](C)O1 [Doxorubicin, reference compound]
